Laboratory results reported in US20170209579A1, “NON-INVASIVE RADIOFREQUENCY FIELD TREATMENT FOR CANCER THERAPY” (Baylor College of Medicine, priority 2014, published 2017).

Key:
[1] = tested on: subcutaneous pancreatic tumors; experiment: Tumor size in mice bearing subcutaneous pancreatic tumors, RF + Gemcitabine; type: in vivo, mouse; conditions: Gemcitabine 70 mg/Kg intravenously once per week; higher power RF system (0-1200 W); n=5
Procedure: (13A) Mice bearing subcutaneous pancreatic tumors were exposed to either RF, Gemcitabine, or RF+Gemcitabine once per week until the control group tumor size became a burden (n=5 in each group). The RF system used can be seen in (13B) and is a higher power version (0-1200 W) of the portable RF system. RF conditions were similar to that shown in (13B). Gemcitabine was given intravenously at a dosage of 70 mg/Kg. […] (13A) Mice bearing subcutaneous pancreatic tumors were exposed to non-invasive RF, Gemcitabine, or non-invasive RF+Gemcitabine once per week until the control group tumor size became a burden (n=5 in each group). The non-invasive RF system used can be seen in (13B) and is a higher power version (0-1200 W) of the portable RF system. non-invasive RF conditions were similar to that shown in FIG. 13B. Gemcitabine was given intravenously at a dosage of 70 mg/Kg.

[2] = tested on: γ-H2AX foci in Hep3B cells; experiment: γ-H2AX foci in Hep3B cells (immunocytochemistry, confocal); type: cell-based, human
Procedure: Approximately 50,000 cells were seeded in each well of a 12-well plate and grown on circular #1.5 cover slips (Electron Microscopy Sciences, Hatfield, Pa.). After 24 hours, cells were exposed to various treatment conditions as described herein. At the end of treatment, cells were fixed, permeabilized, blocked, labeled with primary antibody, and then with secondary antibody in consecutive steps. For confocal imaging, Fluoview—FV1000 Olympus Confocal Microscope (Center Valley, Pa.) was used.
For immunocytochemistry assay, an indirect immunofluorescence approach was used. Circular #1.5 cover slips (Electron microscopy sciences, Hatfield, Pa.) were placed in 12-well plates and sterilized using a 20-minute UV exposure. Cells from an exponentially growing culture were counted and approximately 50,000 cells were seeded in each well of a 12-well plate. Adherent sub-confluent monolayers were observed growing on the cover slip 24 hours later. At this point, cells were exposed to various treatment conditions as described herein. At the end of treatment, immunolabeling of proteins being studied was performed. Cells were fixed, permeablized, blocked, labeled with primary antibody and then with secondary antibody in consecutive steps. Between each step, cells were washed with PBS three times for 5 minutes each time on a leveled shaker at 50 RPM. Cells were fixed with 1% paraformaldehyde in PBS (w/v) for 30 minutes. Permeablization was performed using 0.3% (v/v) Triton-100 and 0.125% (w/v) CHAPS (3-[(3-Cholamidopropyl) dimethylammonio]-1-propanesulfonate) dissolved in PBS for 15 minutes. […] Primary and secondary antibodies were diluted in the blocking buffer. Incubation with primary antibody was performed over night at 4° C. Secondary antibody incubations were performed for 2 hours at room temperature. […]
The slides were sealed with a conventional nail polish hardener and stored at 4° C. until imaging. […] Exposure settings were set to maximize dynamic range initially and then kept constant across multiple samples to allow quantitative comparisons. […]

For Nc1ccn([C@@H]2O[C@H](CO)[C@@H](O)C2(F)F)c(=O)n1 [gemcitabine, 2′,2′-difluoro 2′-deoxycytidine], which “tumor size, Gemcitabine+RF group compared to other groups” value [1] is on record?
The value was “clear reduction in tumor size”.

What about the “persistence of γ-H2AX positive cells, gemcitabine and hyperthermia versus either alone” value ([2]; gemcitabine 100 nM 24 hours, last two hours 42.5° C.) of the same compound?
Its value is “persisted for a longer duration”.

What about the “relative mean (±SD) γ-H2AX pixels per cell” value ([2]; gemcitabine alone) of the same compound?
The value was 1.0±0.26.

What about the “relative mean (±SD) γ-H2AX pixels per cell” value ([2]; hyperthermia immediately followed by gemcitabine) of the same compound?
The value was 1.0±0.20.
